Patent US5750540A, “1,4-di-substituted piperidine derivatives” (Banyu Pharmaceutical Co., Ltd., priority 1995, dated 1998)

Tests used:
muscarinic M1 receptors = molecular target: T1, muscarinic M1 receptors (Rattus norvegicus, UniProt P08482); assay: Inhibition of binding to muscarinic M1 receptors ([3H]-telenzepine, cerebral cortex membrane)
T1 construct: a mixture of a membrane specimen from the cerebral cortex; from tissue; host or cells: rat cerebral cortex membranes (SD rat)
T1 sequence (P08482 1-460): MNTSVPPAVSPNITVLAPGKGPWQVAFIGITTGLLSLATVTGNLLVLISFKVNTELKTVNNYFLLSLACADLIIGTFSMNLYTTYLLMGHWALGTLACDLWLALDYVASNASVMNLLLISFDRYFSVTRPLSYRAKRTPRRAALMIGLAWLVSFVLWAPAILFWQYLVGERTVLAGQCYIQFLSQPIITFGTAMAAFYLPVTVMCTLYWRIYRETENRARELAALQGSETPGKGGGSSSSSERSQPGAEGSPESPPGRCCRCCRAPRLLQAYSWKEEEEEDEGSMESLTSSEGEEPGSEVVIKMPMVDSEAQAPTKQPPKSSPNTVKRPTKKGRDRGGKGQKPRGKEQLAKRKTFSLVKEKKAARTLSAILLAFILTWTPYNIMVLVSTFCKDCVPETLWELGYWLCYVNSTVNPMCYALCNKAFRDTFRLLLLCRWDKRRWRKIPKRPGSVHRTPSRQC
Experimental: (§1) In these tests, their inhibitory and antagonistic effects were expressed in terms of the dissociation constant (Ki) of each test compound which was calculated from its concentration (IC50 ) causing a 50% inhibition of the binding of a labeled ligand to muscarinic receptors. As the labeled ligand, [^3 H]-telenzepine was used for the muscarinic M1 receptors and [^3 H]-N-methylscopolamine for the muscarinic M2 and M3 receptors.
(§2) A male SD strain rat (purchased from Nippon Charles River Co., Ltd.), weighing about 250-350 g, was sacrificed, and the cerebral cortex, heart and lacrimal glands were excised. Using a Polytron (setting 5), each organ was homogenized in 5 volumes of an ice-cold buffer solution (pH 7.4) containing 50 mM tris-HCl, 5 mM magnesium chloride, 1 mM trisodium ethylenediaminetetraacetate and 20% sucrose. The resulting homogenate was centrifuged at 3,000×g at 4° C. for 15 minutes, and the supernatant was filtered through gauze and ultracentrifuged at 100,000×g at 4° C. for 45 minutes. The resulting precipitate was suspended in an ice-cold buffer solution (pH 7.4) containing 50 mM tris-HCl and 5 mM magnesium chloride (hereinafter referred briefly to as "tris buffer") and ultracentrifuged at 100,000×g at 4° C. for 45 minutes. The resulting precipitate was suspended in tris buffer so as to give a concentration of 50 mg/ml and stored at -80° C. till use. The membrane specimens so prepared were thawed prior to use and submitted to tests for the inhibition of binding to muscarinic receptors.
2) Tests for the inhibition of binding to the muscarinic M1 receptors
These tests were performed according to a modification of the method of Hargreaves et al. [Br. J. Pharmacol., Vol. 107, pp. 494-501 (1992)]. Specifically, a mixture of a membrane specimen from the cerebral cortex, 1 nM [^3 H]-telenzepine (85 Ci/mmol; manufactured by New England Nuclear) and a test compound in 0.5 ml of tris buffer was incubated at room temperature (about 20°-25° C.) for 120 minutes. After the addition of 0.5 ml of ice-cold tris buffer, the mixture was filtered by suction through a glass filter (Packard Unifilter Plate GF/C). Then, the filter was washed four times with 1 ml portions of ice-cold tris buffer and dried at 50° C. for an hour. After the addition of a scintillator (Packard Microscinti 0), the radioactivity of [^3 H]-telenzepine adsorbed to the filter was measured with a microplate scintillation counter (Packard Topcount). The nonspecific binding of [^3 H]-telenzepine to receptors was determined by the addition of […] pirenzepine. According to the method of Cheng and Prusoff [Biochem. Pharmacol., Vol. 22, pp. 3099-3108 (1973)], the affinity of the test compound (i.e., a compound in accordance with the present invention) for the muscarinic M1 receptors was determined in terms of its dissociation constant (Ki) calculated from the concentration (IC50) of the test compound which was required to cause a 50% inhibition of the binding of [^3 H]-telenzepine used as the labeled ligand.

muscarinic M3 receptor [1] = molecular target: T2, muscarinic M3 receptor (Rattus norvegicus, UniProt P08483); assay: Inhibition of binding to muscarinic M3 receptors ([3H]-N-methylscopolamine, lacrimal gland membrane); parameters: a membrane specimen from the lacrimal glands was used as the membrane specimen; from tissue; host or cells: rat lacrimal gland membranes (SD rat)
Experimental: as §1, §2
4) Tests for the inhibition of binding to the muscarinic M2 receptors
The nonspecific binding of [^3 H]-N-methylscopolamine to receptors was determined by the addition of 1 mM N-methylscopolamine.

muscarinic M3 receptor [2] = molecular target: T2, muscarinic M3 receptor; assay: Intravesical bladder pressure in rats; type: in vivo; parameters: from tissue; settings: i.v., 25% inhibition of peak intravesical bladder pressure
Experimental: Tests for antagonism against muscarinic M3 receptor (in vivo)
4) Tests for intravesical bladder pressure in rats
These tests were performed according to the method of Maggi et al. (Drug Dev. Res. 10: 157-170, 1987). Briefly, eight- to ten-weeks-old male rats of the Sprague-Dawley strain, weighing 330-370 g, were anesthetized by subcutaneous administration of urethane (1 g/kg) and α-chloralose (50 mg/kg), and the right jugular vein was cannulated for drug administration. The body temperature was kept constant by means of a heating pad maintained at 37° C. Through a midline incision of the abdomen, the urinary bladder was exposed and emptied of urine by the application of a slight manual pressure. A 20-gauge needle was inserted through the apex of the bladder dome by 3-4 mm into its lumen. The needle had previously been connected to a pressure transducer and an infusion pump by means of polyethylene tubing and the whole system filled with saline. After a 30-minutes equilibration period at zero volume, saline was infused (2.8 ml/hr) until a coordinated sustained contraction, reflecting the peak intravesical bladder pressure, occured. The bladder was then emptied manually and allowed to rest for five minutes. PvesP was defined as the difference between the maximum and resting bladder pressures. This procedure was repeated at least five times and the evaluation of a test compound was carried out in the animals in which a stable peak intravesical bladder pressure was recorded. The drug potency (ID25 ) was determined after intravenous administration of the test compound during the rest period. Five minutes after drug administration, the infusion of saline was started to induce micturition contraction and the peak intravesical bladder pressure was recorded. The depression in peak intravesical bladder pressure was expressed as a percent of the control peak intravesical bladder pressure observed before administration of the test compound. The ID25 value, calculated by probit analysis, was defined as the drug dose that inhibited the control peak intravesical bladder pressure by 25%.

T2 sequence (P08483 whole entry): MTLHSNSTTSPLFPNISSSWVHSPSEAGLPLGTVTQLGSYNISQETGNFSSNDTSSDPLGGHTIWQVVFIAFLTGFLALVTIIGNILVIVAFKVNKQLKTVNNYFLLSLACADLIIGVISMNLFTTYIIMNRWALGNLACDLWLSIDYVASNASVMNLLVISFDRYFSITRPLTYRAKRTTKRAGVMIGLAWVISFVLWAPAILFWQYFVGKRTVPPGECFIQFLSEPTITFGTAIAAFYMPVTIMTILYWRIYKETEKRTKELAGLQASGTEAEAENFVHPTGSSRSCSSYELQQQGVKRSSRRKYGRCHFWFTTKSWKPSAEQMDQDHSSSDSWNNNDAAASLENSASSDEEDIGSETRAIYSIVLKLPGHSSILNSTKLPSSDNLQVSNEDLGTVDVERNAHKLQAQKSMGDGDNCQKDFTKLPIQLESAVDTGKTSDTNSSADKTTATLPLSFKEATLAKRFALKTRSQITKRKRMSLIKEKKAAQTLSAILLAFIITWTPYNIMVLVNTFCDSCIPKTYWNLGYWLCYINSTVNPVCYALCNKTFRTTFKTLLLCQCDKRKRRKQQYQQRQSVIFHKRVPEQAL

In the case of CC(C)=CCCN1CCC(NC(=O)C(O)(c2ccccc2)C2CCC2)CC1 (centres unmarked) [Example 1, N-[1-(4-methyl-3-pentenyl)-piperidin-4-yl]-2-cyclobutyl-2-hydroxy-2-phenylacetamide], the Ki (muscarinic M1 receptors) is reported as 45 nM, the Ki (muscarinic M3 receptor [1]) is reported as 8.9 nM and the M1/M3 (muscarinic M3 receptor [1]; ratio of binding Ki, M1 over M3) is reported as 5.0. For the same compound, the M2/M3 (muscarinic M3 receptor [1]; ratio of binding Ki, M2 over M3) was 96 and the “Urinating contraction ID25” value (muscarinic M3 receptor [2]) was 1.3 mg/kg i.v.
